Legend:
Cph001^D189N = test: Coupled enzyme assay of Cph001 variant; assay type: biochemical, Streptosporangium roseum; settings: for absorbance at 340 nm, Average of triplicate: 2 mM substrate + ATP
Procedure: (§1) The phosphorylation reaction was measured by a coupled enzyme assay as following. The reaction 1, performed by 0.77 μM Cph001 with 2 mM antibiotic substrates (CMN IIA, CMN IIB, VIO, Kan, or Ery), was coupled to the reaction 2 and 3 in the presence of 4 U PK (pyruvate kinase from rabbit muscle, Merck), 4 U LDH (lactate dehydrogenase from rabbit muscle, Merck), 2 mM ATP or GTP, 2 mM PEP (phosphoenolpyruvate), 0.5 mM NADH, 40 mM KCl and 5 mM MgCl2 in a reaction buffer containing 400 mM NaCl and 20 mM Tris buffer at pH 8.0. The reactions were mixed well in a final volume of 200 μL in 96-well plates. The Cph001 activity was assayed by determining the oxidation of NADH at 340 nm. The reaction buffer and enzyme concentration of the Cph reaction was followed by previous study. The 340 nm absorbance changes were detected at 30 °C for every 1 min at a time in 15 min on an EPOCH Microplate Reader (BioTek). All reactions were carried out in triplicate.

Cph001^D189A = test: Coupled enzyme assay of Cph001 variant; assay type: biochemical, Streptosporangium roseum; settings: for absorbance at 340 nm, Average of triplicate: 2 mM substrate + ATP
Procedure: as §1

For `N=C1NCCC([C@@H]2NC(=O)/C(=C/NC(N)=O)NC(=O)[C@H](CNC(=O)C[C@@H](N)CCCN)NC(=O)[C@H](CO)NC(=O)[C@@H](N)CNC2=O)N1` (stereo in doubt) [CMN IIA], the “phosphotransferase activity of variant” value (Cph001^D189N; CMN IIA + ATP) was “complete loss of phosphotransferase activity”, the “absorbance at 340 nm, Average of triplicate” value (“absorbance at 340 nm, Average” below) (Cph001^D189N; time 00:00:00) was 1.495 and the “absorbance at 340 nm, Average” value (Cph001^D189N; time 00:01:00) was 1.553. For the same molecule, the “absorbance at 340 nm, Average” value (Cph001^D189N; time 00:02:00) was 1.591, the “absorbance at 340 nm, Average” value (Cph001^D189N; time 00:03:00) was 1.622 and the “absorbance at 340 nm, Average” value (Cph001^D189N; time 00:04:00) was 1.655. The “absorbance at 340 nm, Average” value (Cph001^D189N; time 00:05:00) was 1.685, the “absorbance at 340 nm, Average” value (Cph001^D189N; time 00:06:00) was 1.709 and the “absorbance at 340 nm, Average” value (Cph001^D189N; time 00:07:00) was 1.733. For the same molecule, the “absorbance at 340 nm, Average” value (Cph001^D189N; time 00:08:00) was 1.755, the “absorbance at 340 nm, Average” value (Cph001^D189N; time 00:09:00) was 1.775 and the “absorbance at 340 nm, Average” value (Cph001^D189N; time 00:10:00) was 1.791. The “absorbance at 340 nm, Average” value (Cph001^D189N; time 00:11:00) was 1.804, the “absorbance at 340 nm, Average” value (Cph001^D189N; time 00:12:00) was 1.814 and the “absorbance at 340 nm, Average” value (Cph001^D189N; time 00:13:00) was 1.823. The “absorbance at 340 nm, Average” value (Cph001^D189N; time 00:14:00) was 1.83, the “absorbance at 340 nm, Average” value (Cph001^D189N; time 00:15:00) was 1.791 and the “phosphotransferase activity of variant” value (Cph001^D189A; CMN IIA + ATP) was “complete loss of phosphotransferase activity”. The “absorbance at 340 nm, Average” value (Cph001^D189A; time 00:00:00) was 1.495, the “absorbance at 340 nm, Average” value (Cph001^D189A; time 00:01:00) was 1.482 and the “absorbance at 340 nm, Average” value (Cph001^D189A; time 00:02:00) was 1.504. The “absorbance at 340 nm, Average” value (Cph001^D189A; time 00:03:00) was 1.549, the “absorbance at 340 nm, Average” value (Cph001^D189A; time 00:04:00) was 1.574 and the “absorbance at 340 nm, Average” value (Cph001^D189A; time 00:05:00) was 1.588. The “absorbance at 340 nm, Average” value (Cph001^D189A; time 00:06:00) was 1.596, the “absorbance at 340 nm, Average” value (Cph001^D189A; time 00:07:00) was 1.602 and the “absorbance at 340 nm, Average” value (Cph001^D189A; time 00:08:00) was 1.612. The “absorbance at 340 nm, Average” value (Cph001^D189A; time 00:09:00) was 1.625, the “absorbance at 340 nm, Average” value (Cph001^D189A; time 00:10:00) was 1.641 and the “absorbance at 340 nm, Average” value (Cph001^D189A; time 00:11:00) was 1.654. For the same molecule, the “absorbance at 340 nm, Average” value (Cph001^D189A; time 00:12:00) was 1.662, the “absorbance at 340 nm, Average” value (Cph001^D189A; time 00:13:00) was 1.67 and the “absorbance at 340 nm, Average” value (Cph001^D189A; time 00:14:00) was 1.682. For the same molecule, the “absorbance at 340 nm, Average” value (Cph001^D189A; time 00:15:00) was 1.69.
